Structures can show the parent of a compound that is named as a salt.
Tests used:
[1] = tested on: LAD2 mast cells; experiment: β-Hexosaminidase release; assay type: cell-based, human; settings: 37°C
[2] = tested on: LAD2 mast cells; experiment: LL-37 internalization into LAD2 cells; assay type: cell-based, human; settings: 37°C
[3] = chlorpromazine 2.5 µM, 30 min pre-treatment, then LL-37 5 µM, 40 min
[4] = pertussis toxin 250 ng/ml, 1 h pre-treatment, then LL-37 5 µM for 40 min
[5] = genistein 10 µM, 30 min pre-treatment, then LL-37 5 µM, 40 min

O=C(N/N=C/c1ccc(O)c(O)c1)c1cc2ccccc2cc1O [dynasore, Dynasore]
effect on LL-37-induced degranulation (β-hexosaminidase release) ([1]; dynasore 10 µM, 30 min pre-treatment, then LL-37 5 µM, 40 min): inhibited degranulation

CN(C)CCCN1c2ccccc2Sc2ccc(Cl)cc21 [chlorpromazine, Chlorpromazine hydrochloride]
effect on LL-37-induced degranulation (β-hexosaminidase release) [1, 3]: inhibited degranulation
effect on LL-37 internalization (fluorescence intensity) [2, 3]: suppressed LL-37 internalization

pertussis toxin
effect on LL-37-induced degranulation (β-hexosaminidase release) [1, 4]: significantly suppressed
effect on LL-37 internalization (fluorescence intensity) [2, 4]: significantly suppressed

O=c1c(-c2ccc(O)cc2)coc2cc(O)cc(O)c12 [genistein]
effect on LL-37-induced degranulation (β-hexosaminidase release) [1, 5]: did not affect
effect on LL-37 internalization (fluorescence intensity) [2, 5]: did not affect

Reference: article PMC6236315 (Molecular Medicine Reports, 2018)
